Results reported in patent US10597388B2, “Pyridazinone herbicides” (FMC CORPORATION, priority 2014, dated 2020).

Experiments:
Test in all cases: Test D controlled growth environment herbicide test, pre- and postemergence
Type in all cases: in vivo
[1] = test system: field poppy (Papaver rhoeas)
Procedure, shortened: (§1)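 Rating is visual, 0–100 scale (100 = complete control), made against untreated plants 14–21 d after treatment in controlled growth conditions. Postemergence sprays went onto 1- to 4-leaf plants in peat medium; preemergence sprays onto silt loam after sowing; formulation included a surfactant.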

[2] = test system: foxtail, green (green foxtail, Setaria viridis)
Procedure, shortened: as §1

[3] = test system: barley, spring (spring barley, Hordeum vulgare)
Procedure, shortened: as §1

[4] = test system: bluegrass (annual bluegrass, Poa annua)
Procedure, shortened: as §1

[5] = test system: windgrass (Apera spica-venti)
Procedure, shortened: as §1

[6] = test system: mustard, wild (wild mustard, Sinapis arvensis)
Procedure, shortened: as §1

[7] = test system: deadnettle (henbit deadnettle, Lamium amplexicaule)
Procedure, shortened: as §1

[8] = test system: wheat, winter (winter wheat, Triticum aestivum)
Procedure, shortened: as §1

[9] = test system: ryegrass, Italian (Italian ryegrass, Lolium multiflorum)
Procedure, shortened: as §1

[10] = test system: canarygrass (Phalaris minor)
Procedure, shortened: as §1

[11] = test system: barley, winter (winter barley, Hordeum vulgare)
Procedure, shortened: as §1

[12] = test system: radish, wild (wild radish, Raphanus raphanistrum)
Procedure, shortened: as §1

[13] = test system: chickweed (common chickweed, Stellaria media)
Procedure, shortened: as §1

[14] = Postemergence, 31 g ai/ha, scale 0 to 100 (0 no effect, 100 complete control)
[15] = Postemergence, 125 g ai/ha, visual rating on scale 0 (no effect) to 100 (complete control), 14 to 21 d
[16] = Postemergence, 250 g ai/ha, scale 0 to 100 (0 no effect, 100 complete control)
[17] = Preemergence, 125 g ai/ha, scale 0 to 100 (0 no effect, 100 complete control)
[18] = Preemergence, 250 g ai/ha, scale 0 to 100 (0 no effect, 100 complete control)
[19] = postemergence, 62 g ai/ha, scale 0 to 100, 0 no effect, 100 complete control
[20] = Preemergence, 62 g ai/ha, scale 0 to 100 (0 no effect, 100 complete control)

## CC(=O)Oc1c(C)nn(C)c(=O)c1-c1ccc(F)c2ccccc12 [Compound 90]
[1]; [14]
  Field Poppy plant response rating: 65
[1]; [15]
  Plant response rating, Field Poppy: 75
[1]; [16]
  Plant response rating, Field Poppy: 90
[1]; Preemergence, 31 g ai/ha
  Plant response rating (scale of 0 to 100), Field Poppy: 15
[1]; Preemergence, 62 g ai/ha
  Plant response rating (scale of 0 to 100), Field Poppy: 100
[1]; [17]
  Plant response rating, Field Poppy: 100
[1]; [18]
  Plant response rating, Field Poppy: 100
[1]; [19]
  Plant response rating, Field Poppy: 70
[2]; [14]
  Foxtail, Green plant response rating: 25
[2]; [15]
  Plant response rating, Foxtail, Green: 70
[2]; [16]
  Plant response rating, Foxtail, Green: 75
[2]; Preemergence, 31 g ai/ha
  Plant response rating (scale of 0 to 100), Foxtail, Green: 25
[2]; Preemergence, 62 g ai/ha
  Plant response rating (scale of 0 to 100), Foxtail, Green: 45
[2]; [17]
  Plant response rating, Foxtail, Green: 70
[2]; [18]
  Plant response rating, Foxtail, Green: 95
[2]; [19]
  Plant response rating, Foxtail, Green: 55
[3]; [14]
  Barley, Spring plant response rating: 10
[3]; [15]
  Plant response rating, Barley, Spring: 35
[3]; [16]
  Plant response rating, Barley, Spring: 40
[3]; Preemergence, 31 g ai/ha
  Plant response rating (scale of 0 to 100), Barley, Spring: 0
[3]; [20]
  Plant response rating, Barley, Spring: 0
[3]; [17]
  Plant response rating, Barley, Spring: 20
[3]; [18]
  Plant response rating, Barley, Spring: 35
[3]; [19]
  Plant response rating, Barley, Spring: 25
[4]; [14]
  Bluegrass plant response rating: 5
[4]; [15]
  Plant response rating, Bluegrass: 25
[4]; [16]
  Plant response rating, Bluegrass: 30
[4]; Preemergence, 31 g ai/ha
  Plant response rating (scale of 0 to 100), Bluegrass: 0
[4]; [20]
  Plant response rating, Bluegrass: 40
[4]; [17]
  Plant response rating, Bluegrass: 65
[4]; [18]
  Plant response rating, Bluegrass: 65
[4]; [19]
  Plant response rating, Bluegrass: 15
[5]; [14]
  Windgrass plant response rating: 30
[5]; [15]
  Plant response rating, Windgrass: 70
[5]; [16]
  Plant response rating, Windgrass: 90
[5]; Preemergence, 31 g ai/ha
  Plant response rating (scale of 0 to 100), Windgrass: 50
[5]; Preemergence, 62 g ai/ha
  Plant response rating (scale of 0 to 100), Windgrass: 65
[5]; [17]
  Plant response rating, Windgrass: 80
[5]; [18]
  Plant response rating, Windgrass: 98
[5]; [19]
  Plant response rating, Windgrass: 50
[6]; [14]
  Mustard, Wild plant response rating: 80
[6]; [15]
  Plant response rating, Mustard, Wild: 100
[6]; [16]
  Plant response rating, Mustard, Wild: 100
[6]; Preemergence, 31 g ai/ha
  Plant response rating (scale of 0 to 100), Mustard, Wild: 35
[6]; Preemergence, 62 g ai/ha
  Plant response rating (scale of 0 to 100), Mustard, Wild: 98
[6]; [17]
  Plant response rating, Mustard, Wild: 100
[6]; [18]
  Plant response rating, Mustard, Wild: 90
[6]; [19]
  Plant response rating, Mustard, Wild: 95
[7]; [14]
  Deadnettle plant response rating: 70
[7]; [15]
  Plant response rating, Deadnettle: 100
[7]; [16]
  Plant response rating, Deadnettle: 100
[7]; Preemergence, 31 g ai/ha
  Plant response rating (scale of 0 to 100), Deadnettle: 15
[7]; Preemergence, 62 g ai/ha
  Plant response rating (scale of 0 to 100), Deadnettle: 70
[7]; [17]
  Plant response rating, Deadnettle: 90
[7]; [18]
  Plant response rating, Deadnettle: 98
[7]; [19]
  Plant response rating, Deadnettle: 80
[8]; [14]
  Wheat, Winter plant response rating: 20
[8]; [15]
  Plant response rating, Wheat, Winter: 40
[8]; [16]
  Plant response rating, Wheat, Winter: 40
[8]; Preemergence, 31 g ai/ha
  Plant response rating (scale of 0 to 100), Wheat, Winter: 0
[8]; Preemergence, 62 g ai/ha
  Plant response rating (scale of 0 to 100), Wheat, Winter: 10
[8]; [17]
  Plant response rating, Wheat, Winter: 25
[8]; [18]
  Plant response rating, Wheat, Winter: 50
[8]; [19]
  Plant response rating, Wheat, Winter: 35
[9]; [14]
  Ryegrass, Italian plant response rating: 75
[9]; [15]
  Plant response rating, Ryegrass, Italian: 95
[9]; [16]
  Plant response rating, Ryegrass, Italian: 100
[9]; Preemergence, 31 g ai/ha
  Plant response rating (scale of 0 to 100), Ryegrass, Italian: 100
[9]; Preemergence, 62 g ai/ha
  Plant response rating (scale of 0 to 100), Ryegrass, Italian: 100
[9]; [17]
  Plant response rating, Ryegrass, Italian: 100
[9]; [18]
  Plant response rating, Ryegrass, Italian: 100
[9]; [19]
  Plant response rating, Ryegrass, Italian: 90
[10]; [14]
  Canarygrass plant response rating: 25
[10]; [15]
  Plant response rating, Canarygrass: 75
[10]; [16]
  Plant response rating, Canarygrass: 75
[10]; Preemergence, 31 g ai/ha
  Plant response rating (scale of 0 to 100), Canarygrass: 50
[10]; Preemergence, 62 g ai/ha
  Plant response rating (scale of 0 to 100), Canarygrass: 75
[10]; [17]
  Plant response rating, Canarygrass: 85
[10]; [18]
  Plant response rating, Canarygrass: 95
[10]; [19]
  Plant response rating, Canarygrass: 45
[11]; [14]
  Barley, Winter plant response rating: 0
[11]; [15]
  Plant response rating, Barley, Winter: 25
[11]; [16]
  Plant response rating, Barley, Winter: 35
[11]; Preemergence, 31 g ai/ha
  Plant response rating (scale of 0 to 100), Barley, Winter: 0
[11]; [20]
  Plant response rating, Barley, Winter: 0
[11]; [17]
  Plant response rating, Barley, Winter: 15
[11]; [18]
  Plant response rating, Barley, Winter: 30
[11]; [19]
  Plant response rating, Barley, Winter: 15
[12]; [14]
  Radish, Wild plant response rating: 65
[12]; [15]
  Plant response rating, Radish, Wild: 75
[12]; [16]
  Plant response rating, Radish, Wild: 95
[12]; Preemergence, 31 g ai/ha
  Plant response rating (scale of 0 to 100), Radish, Wild: 0
[12]; Preemergence, 62 g ai/ha
  Plant response rating (scale of 0 to 100), Radish, Wild: 65
[12]; [17]
  Plant response rating, Radish, Wild: 90
[12]; [18]
  Plant response rating, Radish, Wild: 95
[12]; [19]
  Plant response rating, Radish, Wild: 75
[13]; [14]
  Chickweed plant response rating: 80
[13]; [15]
  Plant response rating, Chickweed: 98
[13]; [16]
  Plant response rating, Chickweed: 100
[13]; Preemergence, 31 g ai/ha
  Plant response rating (scale of 0 to 100), Chickweed: 100
[13]; [17]
  Plant response rating, Chickweed: 100
[13]; [18]
  Plant response rating, Chickweed: 100
[13]; [19]
  Plant response rating, Chickweed: 90
